Results reported in US20220370385A1, “COMPOSITIONS FOR USE IN INHIBITING SRC KINASE AND TREATING AND PREVENTING ASSOCIATED DISORDERS” (Enzene Biosciences Ltd., priority 2019, published 2022).

Tested on: MDA-MB-468 cells
Test: MDA-MB-468 cell viability, CellTiter-Glo, 24 hrs
Type: cell-based, human
Details: 24 hrs incubation
Experimental: MDA-MB-468 cells, isolated from a pleural effusion of a patient with metastatic adenocarcinoma of the breast, is a triple negative breast cancer (TNBC) cell line. The IC 50 value of E05 or lapatinib (Sigma) or the structural analogues of E05 were tested in this cell line.
Briefly, MDA-MB-468 cells (ATCC #HTB-32) were seeded with a density of 5,000 cells per well in a 96 well white plate (Costar Cat #3917) in DMEM media supplemented with 10% FBS (assay medium). The plates were incubated at 37° C., 5% CO2 for 24 hr. E05 and analogues were diluted in the assay medium and added to the respective wells of the assay plate. The plates were further incubated at 37° C., 5% CO2 for 24 hrs. After the incubation, the cell viability was assessed using CellTiter-Glo® and the plates were read for luminescence using Cytation 5 (Biotek). The relative luminescence unit (RLU) obtained was plotted against the concentration and EC50 values were estimated using Graphpad Prism 5 software (FIG. 15 and Table 2).

Row | Activity (EC50) | SMILES
1 | Inactive | O=C(O)CCc1ccc(O)cc1O [E05_B, 3-(2,4-Hydroxyphenyl)-propionic acid]
2 | Inactive | O=C(O)CCc1cccc(O)c1 [E05_C, 3-(3-Hydoxyphenyl)-propionic acid]
